These compounds were tested on U251 (assay: U251 Vacuolization Assay (24h)). Details: Homo sapiens, U-251.
Assay type: cell-based
Method: As used herein the term “EC50 (μM)” refers to the μM concentration of a compound that is required for 50% activity in a vacuolization assay.
Example A—U251 Vacuolization Assay Data (24h) for Compounds of Examples 8-56

Which EC50 does the source give for `Cc1ccc(Nc2nc(NCc3c[nH]c4ccccc34)nc(N3CCOCC3)n2)cc1` [Example 8, N-(1H-Indol-3-ylmethyl)-6-morpholin-4-yl-N′-p-tolyl-[1,3,5]triazine-2,4-diamine] here?
The EC50 was 1 to 10 µM.

With `Cc1cccc(Nc2nc(N/N=C/c3c[nH]c4ccccc34)nc(N3CCOCC3)n2)c1` [Example 9, {4-[N′-(1H-Indol-3-ylmethylene)-hydrazino]-6-morpholin-4-yl-[1,3,5]triazin-2-yl}-m-tolyl-amine] as the compound, how does the EC50 read?
The EC50 was at most 1 µM.

With `Fc1ccc(Nc2nc(N/N=C/c3c[nH]c4ccccc34)nc(N3CCOCC3)n2)cc1` [Example 10, (4-Fluoro-phenyl)-{4-[N′-(1H-indol-3-ylmethylene)-hydrazino]-6-morpholin-4-yl-[1,3,5]triazin-2-yl}-amine] as the compound, how does the EC50 read?
Its EC50 is at most 1 µM.

How did the EC50 turn out when `Clc1ccc(Nc2nc(N/N=C/c3c[nH]c4ccccc34)nc(N3CCOCC3)n2)cc1` [Example 11, (E)-4-(2-((1h-indol-3-yl)methylene)hydrazinyl)-n-(4-chlorophenyl)-6-morpholino-1,3,5-triazin-2-amine] was run?
The EC50 was at most 1 µM.

`COc1ccc(Nc2nc(N/N=C/c3c[nH]c4ccccc34)nc(N3CCOCC3)n2)cc1` [Example 12, {4-[N′-(1H-Indol-3-ylmethylene)-hydrazino]-6-morpholin-4-yl-[1,3,5]triazin-2-yl}-(4-methoxy-phenyl)-amine] was tested. Which EC50 did it give?
Its EC50 is at most 1 µM.

How did the EC50 turn out when `Cc1ccc(Nc2nc(NCCO)nc(N/N=C/c3c[nH]c4ccccc34)n2)cc1` [Example 13, 2-{4-[N′-(1H-Indol-3-ylmethylene)-hydrazino]-6-p-tolylamino-[1,3,5]triazin-2-ylamino}-ethanol] was run?
The EC50 was over 50 µM.

With `Cc1ccc(Nc2nc(N/N=C/c3c[nH]c4ccccc34)nc(N(CCO)CCO)n2)cc1` [Example 14, 2-((2-Hydroxy-ethyl)-{4-[N′-(1H-indol-3-ylmethylene)-hydrazino]-6-p-tolylamino-[1,3,5]triazin-2-yl}-amino)-ethanol] as the compound, how does the EC50 read?
The EC50 was over 50 µM.

How did the EC50 turn out when `Cc1ccc(Nc2nc(N/N=C/c3c[nH]c4ccccc34)nc(N3CCCCC3)n2)cc1` [Example 15, {4-[N′-(1H-Indol-3-ylmethylene)-hydrazino]-6-piperidin-1-yl-[1,3,5]triazin-2-yl}-p-tolyl-amine] was run?
The EC50 was over 50 µM.

`Cc1ccc(Nc2nc(N/N=C/c3c[nH]c4ccccc34)nc(N3CCCC3)n2)cc1` [Example 16, {4-[N′-(1H-Indol-3-ylmethylene)-hydrazino]-6-pyrrolidin-1-yl-[1,3,5]triazin-2-yl}-p-tolyl-amine] was tested. Which EC50 did it give?
The EC50 was over 50 µM.

`Cc1ccc(Nc2nc(N/N=C/c3c[nH]c4ccccc34)nc(N3CCN(C)CC3)n2)cc1` [Example 17, [4-[N′-(1H-Indol-3-ylmethylene)-hydrazino]-6-(4-methyl-piperazin-1-yl)-[1,3,5]triazin-2-yl]-p-tolyl-amine] was tested. Which EC50 did it give?
The EC50 was over 50 µM.

Which EC50 does the source give for `Cc1ccc(Nc2nc(N/N=C/c3c[nH]c4ccccc34)nc(N3CCNCC3)n2)cc1` [Example 18, {4-[N′-(1H-Indol-3-ylmethylene)-hydrazino]-6-piperazin-1-yl-[1,3,5]triazin-2-yl}-p-tolyl-amine] here?
Its EC50 is over 50 µM.

How did the EC50 turn out when `Cc1ccccc1Nc1nc(N/N=C/c2c[nH]c3ccccc23)nc(N2CCOCC2)n1` [Example 19, {4-[N′-(1H-Indol-3-ylmethylene)-hydrazino]-6-morpholin-4-yl-[1,3,5]triazin-2-yl}-o-tolyl-amine] was run?
The EC50 was at most 1 µM.

Which EC50 does the source give for `FC(F)(F)c1ccc(Nc2nc(N/N=C/c3c[nH]c4ccccc34)nc(N3CCOCC3)n2)cc1` [Example 20, (E)-4-(2-((1h-indol-3-yl)methylene)hydrazinyl)-6-morpholino-n-(4-(trifluoromethyl)phenyl)-1,3,5-triazin-2-amine] here?
Its EC50 is at most 1 µM.

`Brc1ccc(Nc2nc(N/N=C/c3c[nH]c4ccccc34)nc(N3CCOCC3)n2)cc1` [Example 21, (E)-4-(2-((1h-indol-3-yl)methylene)hydrazinyl)-n-(4-bromophenyl)-6-morpholino-1,3,5-triazin-2-amine] was tested. Which EC50 did it give?
Its EC50 is at most 1 µM.

How did the EC50 turn out when `N#Cc1ccc(Nc2nc(N/N=C/c3c[nH]c4ccccc34)nc(N3CCOCC3)n2)cc1` [Example 22, (E)-4-((4-(2-((1H-indol-3-yl)methylene)hydrazinyl)-6-morpholino-1,3,5-triazin-2-yl)amino)benzonitrile] was run?
The EC50 was at most 1 µM.

How did the EC50 turn out when `Cc1ccc(Nc2nc(N/N=C\c3cccnc3)nc(N3CCOCC3)n2)cc1` [Example 23, [4-Morpholin-4-yl-6-(N′-pyridin-3-ylmethylene-hydrazino)-[1,3,5]triazin-2-yl]-p-tolyl-amine] was run?
Its EC50 is 1 to 10 µM.

Which EC50 does the source give for `Cc1ccc(Nc2nc(N/N=C\c3cc[nH]c3)nc(N3CCOCC3)n2)cc1` [Example 24, {4-Morpholin-4-yl-6-[N′-(1H-pyrrol-3-ylmethylene)-hydrazino]-[1,3,5]triazin-2-yl}-p-tolyl-amine] here?
Its EC50 is 10 to 50 µM.

How did the EC50 turn out when `Clc1cccc(Nc2nc(N/N=C/c3c[nH]c4ccccc34)nc(N3CCOCC3)n2)c1` [Example 25, (3-Chloro-phenyl)-{4-[N′-(1H-indol-3-ylmethylene)-hydrazino]-6-morpholin-4-yl-[1,3,5]triazin-2-yl}-amine] was run?
The EC50 was at most 1 µM.

Which EC50 does the source give for `O=[N+]([O-])c1ccc(Nc2nc(N/N=C/c3c[nH]c4ccccc34)nc(N3CCOCC3)n2)cc1` [Example 26, (E)-4-(2-((1H-indol-3-yl)methylene)hydrazinyl)-6-morpholino-N-(4-nitrophenyl)-1,3,5-triazin-2-amine] here?
The EC50 was at most 1 µM.

`Nc1ccc(Nc2nc(N/N=C/c3c[nH]c4ccccc34)nc(N3CCOCC3)n2)cc1` [Example 27, N1-(4-(2-((1h-indol-3-yl)methylene)hydrazinyl)-6-morpholino-1,3,5-triazin-2-yl)benzene-1,4-diamine] was tested. Which EC50 did it give?
The EC50 was at most 1 µM.

How did the EC50 turn out when `CC(=O)Nc1ccc(Nc2nc(N/N=C/c3c[nH]c4ccccc34)nc(N3CCOCC3)n2)cc1` [Example 28, (E)-N-(4-((4-(2-((1H-indol-3-yl)methylene)hydrazinyl)-6-morpholino-1,3,5-triazin-2-yl)amino)phenyl)acetamide] was run?
The EC50 was at most 1 µM.

For `COCCN(CCOC)c1nc(N/N=C/c2c[nH]c3ccccc23)nc(Nc2ccc(C)cc2)n1` [Example 29, (E)-6-(2-((1H-Indol-3-yl)methylene)hydrazinyl)-N2,N2-bis(2-methoxyethyl)-N4-(p-tolyl)-1,3,5-triazine-2,4-diamine], which EC50 is on record?
The EC50 was over 50 µM.

How did the EC50 turn out when `Cc1ccc(Nc2nc(N/N=C/c3c[nH]c4ccccc34)nc(N(C)C)n2)cc1` [Example 30, (E)-6-(2-((1H-Indol-3-yl)methylene)hydrazinyl)-N2,N2-dimethyl-N4-(p-tolyl)-1,3,5-triazine-2,4-diamine] was run?
Its EC50 is over 50 µM.

For `Cc1ccc(Nc2nc(N/N=C\c3csc4ccccc34)nc(N3CCOCC3)n2)cc1` [Example 31, [4-(N′-Benzo[b]thiophen-3-ylmethylene-hydrazino)-6-morpholin-4-yl-[1,3,5]triazin-2-yl]-p-tolyl-amine], which EC50 is on record?
Its EC50 is 1 to 10 µM.

With `Cc1ccc(Nc2nc(N/N=C/c3ccncc3)nc(N3CCOCC3)n2)cc1` [Example 32, [4-Morpholin-4-yl-6-(N′-pyridin-4-ylmethylene-hydrazino)-[1,3,5]triazin-2-yl]-p-tolyl-amine] as the compound, how does the EC50 read?
The EC50 was 1 to 10 µM.

`Cc1ccc(Nc2nc(N/N=C/c3ccccc3)nc(N3CCOCC3)n2)cc1` [Example 33, [4-(N′-Benzylidene-hydrazino)-6-morpholin-4-yl-[1,3,5]triazin-2-yl]-p-tolyl-amine] was tested. Which EC50 did it give?
The EC50 was at most 1 µM.

Which EC50 does the source give for `CN(C)c1ccc(Nc2nc(N/N=C/c3c[nH]c4ccccc34)nc(N3CCOCC3)n2)cc1` [Example 34, (E)-N1-(4-(2-((1H-indol-3-yl)methylene)hydrazinyl)-6-morpholino-1,3,5-triazin-2-yl)-N4,N4-dimethylbenzene-1,4-diamine] here?
Its EC50 is at most 1 µM.

Which EC50 does the source give for `CCN(C)c1nc(N/N=C/c2c[nH]c3ccccc23)nc(Nc2ccc(C)cc2)n1` [Example 35, (E)-6-(2-((1H-Indol-3-yl)methylene)hydrazinyl)-N2-ethyl-N2-methyl-N4-(p-tolyl)-1,3,5-triazine-2,4-diamine] here?
Its EC50 is over 50 µM.

For `Cc1ccc(Nc2nc(N/N=C/c3c[nH]c4ccccc34)nc(N3CCC3)n2)cc1` [Example 36, (E)-4-(2-((1H-Indol-3-yl)methylene)hydrazinyl)-6-(azetidin-1-yl)-N-(p-tolyl)-1,3,5-triazin-2-amine], which EC50 is on record?
Its EC50 is over 50 µM.

For `Cc1ccc(Nc2nc(N/N=C/c3c[nH]c4ccccc34)nc(N3CCC(O)CC3)n2)cc1` [Example 37, (E)-1-(4-(2-((1H-Indol-3-yl)methylene)hydrazinyl)-6-(p-tolylamino)-1,3,5-triazin-2-yl)piperidin-4-ol], which EC50 is on record?
Its EC50 is over 50 µM.

For `Cc1ccc(Nc2nc(N/N=C/c3c[nH]c4ccccc34)nc(N3CCSCC3)n2)cc1` [Example 38, (E)-4-(2-((1H-Indol-3-yl)methylene)hydrazinyl)-6-thiomorpholino-N-(p-tolyl)-1,3,5-triazin-2-amine], which EC50 is on record?
The EC50 was over 50 µM.

`Cc1ccc(Nc2cc(N/N=C/c3c[nH]c4ccccc34)nc(N3CCOCC3)n2)cc1` [Example 39] was tested. Which EC50 did it give?
Its EC50 is 1 to 10 µM.

`Cc1ccc(Nc2cc(-n3ncc4c5ccccc5[nH]c43)nc(N3CCOCC3)n2)cc1` [Example 40, [2-morpholin-4-yl-6-(8H-pyrazolo[3,4-b]indol-1-yl)-pyrimidin-4-yl]-p-tolyl-amine] was tested. Which EC50 did it give?
The EC50 was 10 to 50 µM.

Which EC50 does the source give for `Cc1ccc(Nc2cc(N3CCOCC3)nc(N/N=C/c3c[nH]c4ccccc34)n2)cc1` [Example 41, {2-[N′-(1H-indol-3-ylmethylene)-hydrazino]-6-morpholin-4-yl-pyrimidin-4-yl}-p-tolyl-amine] here?
The EC50 was 1 to 10 µM.

How did the EC50 turn out when `Clc1ccccc1Nc1nc(N/N=C/c2c[nH]c3ccccc23)nc(N2CCOCC2)n1` [Example 42, (2-Chloro-phenyl)-{4-[N′-(1H-indol-3-ylmethylene)-hydrazino]-6-morpholin-4-yl-[1,3,5]triazin-2-yl}-amine] was run?
Its EC50 is at most 1 µM.

With `Cc1ccc(Nc2nc(N/N=C/c3ccccn3)nc(N3CCOCC3)n2)cc1` [Example 43, [4-Morpholin-4-yl-6-(N′-pyridin-2-ylmethylene-hydrazino)-[1,3,5]triazin-2-yl]-p-tolyl-amine] as the compound, how does the EC50 read?
The EC50 was 1 to 10 µM.

How did the EC50 turn out when `Cc1ccc(Nc2nc(N/N=C/c3cc4ccccc4[nH]3)nc(N3CCOCC3)n2)cc1` [Example 44, {4-[N′-(1H-Indol-2-ylmethylene)-hydrazino]-6-morpholin-4-yl-[1,3,5]triazin-2-yl}-p-tolyl-amine] was run?
The EC50 was 1 to 10 µM.

— patent publication US12030896B2, “PIKfyve inhibitors” (Mayo Foundation for Medical Education and Research, priority 2018, dated 2024)
